From the Deep4Chem optical property database
“And” between values parts separate entries of the source, which are not always exact repeats. Equal entries are not always repeated.

Assay: photoluminescence quantum yield (fraction); solvent given as SMILES

Structure (SMILES): COc1ccc(N(c2ccc(C=C(c3ccccc3)c3ccccc3)cc2)c2ccc(OC)cc2)cc1
- photoluminescence quantum yield (in Cc1ccccc1): 0.01

Structure (SMILES): O=P1(c2ccccc2)C(c2ccc(C3=Cc4ccccc4P3(=O)c3ccccc3)cc2)=Cc2ccccc21 (stereo unspecified)
- photoluminescence quantum yield (in C1CCOC1): 0.29

Structure (SMILES): CC[N+]1(CC)CN2C(=N1)C(C(=O)O)=Cc1cc(C)ccc12
- photoluminescence quantum yield (in O): 0.269

Structure (SMILES): CC(C)(C)c1ccc2c(c1)c1cc(C(C)(C)C)ccc1n2-c1ccc(C#Cc2ccc(C=O)cc2)cc1
- photoluminescence quantum yield (in ClCCl): 0.1

Structure (SMILES): N#Cc1nc2c(OCc3ccccc3)nc(N)nc2n1Cc1ccccc1
- photoluminescence quantum yield (in C1COCCO1): 0.73
- photoluminescence quantum yield (in CC#N): 0.65
- photoluminescence quantum yield (in CO): 0.14
- photoluminescence quantum yield (in ClCCl): 0.81

Structure (SMILES): COc1ccccc1-c1nc2c3cccnc3c3ncccc3c2n1-c1ccccc1
- photoluminescence quantum yield (in Cc1ccccc1): 0.064

Structure (SMILES): CCCCOc1cc2ccccc2c2c1oc1cc3ccccc3cc12
- photoluminescence quantum yield (in C1CCOC1): 0.63

Structure (SMILES): COc1cc(/C=C/c2nc3ccccc3o2)c(OC)cc1/C=C/c1nc(C)nc(C)n1
- photoluminescence quantum yield (in C1CCOC1): 0.89
- photoluminescence quantum yield (in CC#N): 0.85
- photoluminescence quantum yield (in ClC(Cl)Cl): 0.86
- photoluminescence quantum yield (in ClCCl): 0.86

Structure (SMILES): CN1C(=CC=Cc2nc3nc4ccccc4nc3s2)C(C)(C)c2ccccc21
- photoluminescence quantum yield (in CCO): 0.75

Structure (SMILES): CC(C)(C)c1ccc2c(c1)Cc1cc(C(C)(C)C)ccc1-2
- photoluminescence quantum yield (in C1CCCCC1): 0.7

Structure (SMILES): C(S/C=C/c1ccc(-c2ccc(/C=C/SC=C3CCCCCC3)cc2)cc1)=C1CCCCCC1
- photoluminescence quantum yield (in ClCCl): 0.176

Structure (SMILES): Cc1cc(-c2ccc(-n3c4ccccc4c4ccccc43)cc2)nc(-c2ccc(-c3ccccc3)cc2)n1
- photoluminescence quantum yield (in C1CCOC1): 0.62
- photoluminescence quantum yield (in CN(C)C=O): 0.59
- photoluminescence quantum yield (in Cc1ccccc1): 0.52
- photoluminescence quantum yield (in ClC(Cl)Cl): 0.75

Structure (SMILES): CCOC(=O)C1=C(C(=O)OCC)C2(c3ccccc3-c3ccccc32)[C@@H](c2ccc(Cl)cc2)C=C2c3cc(OC)c(OC)cc3CCN21
- photoluminescence quantum yield (in ClCCl): 0.00114

Structure (SMILES): CCCN1C(=O)c2c3c(c4c(c2C1=O)CCc1cc(-c2ccc(N(C)C)cc2)c(OC)cc1-4)-c1cc(OC)c(-c2ccc(N(C)C)cc2)cc1CC3
- photoluminescence quantum yield (in C1CCCCC1): 0.752
- photoluminescence quantum yield (in C1CCOC1): 0.069
- photoluminescence quantum yield (in CCOC(C)=O): 0.065
- photoluminescence quantum yield (in Cc1ccccc1): 0.726
- photoluminescence quantum yield (in ClCCl): 0.023

Structure (SMILES): C(#Cc1cccs1)C(C#Cc1cccs1)=Cc1ccc(C=C(C#Cc2cccs2)C#Cc2cccs2)s1
- photoluminescence quantum yield (in ClC(Cl)Cl): 0.03 and 0.07

Structure (SMILES): CCC1(CC)c2ccccc2-c2ccc(C#Cc3ccc4ccc5cccc6ccc3c4c56)cc21
- photoluminescence quantum yield (in Cc1ccccc1): 0.99

Structure (SMILES): COc1ccc2c(c1)C(=O)c1ccccc1-2
- photoluminescence quantum yield (in C1CCCCC1): 0.034
- photoluminescence quantum yield (in CC#N): 0.0018
- photoluminescence quantum yield (in CCO): 0

Structure (SMILES): CC1(C)C(/C=C/C=C/C=C/C=C2/N(CCCCCC(=O)O)c3ccc(S(=O)(=O)[O-])cc3C2(C)C)=[N+](CCCCS(=O)(=O)[O-])c2ccc(S(=O)(=O)[O-])cc21
- photoluminescence quantum yield (in CO): 0.55
- photoluminescence quantum yield (in O): 0.3

Structure (SMILES): COc1ccc2c(c1)-c1ccccc1C2=O
- photoluminescence quantum yield (in C1CCCCC1): 0.0007
- photoluminescence quantum yield (in CC#N): 0.034
- photoluminescence quantum yield (in CCO): 0.002

Structure (SMILES): Cc1ccc2nc(-c3cccc4nc(C)[nH]c(=O)c34)[nH]c2c1
- photoluminescence quantum yield (in CN(C)C=O): 0.036

Structure (SMILES): CC(C)(C)c1ccc2cc3c4cccc5cccc(c6cc(C(C)(C)C)cc(c2c1)c63)c54
- photoluminescence quantum yield (in CC1CCCCC1): 0.74

Structure (SMILES): CCCCCCCCCCCCC(CCCCCCCCCC)Cn1c2cc(/C=C/C=C(C#N)C#N)c3cccc4c5cccc6c(/C=C/C=C(C#N)C#N)cc1c(c65)c2c34 (stereo unspecified)
- photoluminescence quantum yield (in C1CCCCC1): 0.044
- photoluminescence quantum yield (in CC#N): 0.061
- photoluminescence quantum yield (in Cc1ccccc1): 0.073
- photoluminescence quantum yield (in ClCCl): 0.067

Structure (SMILES): COC(=O)c1nc2cnc(N(C)C)nc2n1Cc1ccccc1
- photoluminescence quantum yield (in C1COCCO1): 0.83
- photoluminescence quantum yield (in CC#N): 0.6
- photoluminescence quantum yield (in CO): 0.17
- photoluminescence quantum yield (in ClCCl): 0.81

Structure (SMILES): c1ccc(N(c2ccccc2)c2ccc(-c3ccc4c(c3)C3(c5cc(-c6ccc(N(c7ccccc7)c7ccccc7)cc6)ccc5S4)c4ccccc4-c4ccccc43)cc2)cc1
- photoluminescence quantum yield (in ClCCl): 0.66

Structure (SMILES): CN(C)c1ccc(C2=Nc3scc(-c4ccc(C#N)cc4)[n+]3[B-](F)(F)O2)cc1
- photoluminescence quantum yield (in C1CCOC1): 0.23
- photoluminescence quantum yield (in CC#N): 0.02
- photoluminescence quantum yield (in Cc1ccccc1): 0.62
- photoluminescence quantum yield (in ClCCl): 0.61

Structure (SMILES): COc1ccc(C2=C/C(=C\c3ccccc3)C(=O)N2)cc1OC
- photoluminescence quantum yield (in C1COCCO1): 0.108

Structure (SMILES): CCCCC(CC)Cn1c2cc(C#N)ccc2c2ccc(C#Cc3ccc4ccc5ccc(C#Cc6ccc7c8ccc(C#N)cc8n(CC(CC)CCCC)c7c6)c6ccc3c4c56)cc21 (stereo unspecified)
- photoluminescence quantum yield (in ClCCl): 0.51

Structure (SMILES): CCN(CC)c1ccc2cc(C#N)/c(=N\C(=O)c3ccccc3)oc2c1
- photoluminescence quantum yield (in CCO): 0.033
- photoluminescence quantum yield (in ClCCl): 0.87

Structure (SMILES): CC1(C)CC(=O)C2=C(C1)Oc1ccc3ccc(O)cc3c1C2c1ccccn1 (stereo unspecified)
- photoluminescence quantum yield (in C1CCOC1): 0.0027
- photoluminescence quantum yield (in C1COCCO1): 0.0021
- photoluminescence quantum yield (in CC#N): 0.0037
- photoluminescence quantum yield (in CCCCCCC): 0.0082
- photoluminescence quantum yield (in CCO): 0.0035
- photoluminescence quantum yield (in CO): 0.0024
- photoluminescence quantum yield (in O): 0.2

Structure (SMILES): CCCc1cc2c(s1)-c1cc3c(cc1NB2c1ccccc1)-c1sc(CCC)cc1B(c1ccccc1)N3
- photoluminescence quantum yield (in ClCCl): 0.19

Structure (SMILES): CN(C)c1ccc(-c2ccc(C#N)s2)s1
- photoluminescence quantum yield (in CCO): 0.23

Structure (SMILES): Cc1cc(-c2nc(-c3ccccc3)nc(-c3ccccc3)n2)c(C)cc1-c1ccc2c(c1)C1(c3ccccc3-c3ccccc31)c1ccccc1N2c1ccccc1
- photoluminescence quantum yield (in c1cc(-c2cccc(-n3c4ccccc4c4ccccc43)c2)cc(-n2c3ccccc3c3ccccc32)c1): 0.98
